Data: publication PMC10728895, “Stapled Phd Peptides Inhibit Doc Toxin Induced Growth Arrest in Salmonella” (ACS Chemical Biology, 2023)
Positions of bridges follow the written chain, without caps; N, C: chain ends. Non-standard residues stand in square brackets, D forms with d. Residues, ends and D or L forms follow the SMILES beside them. S5 = C=CCCC[C@](C)(N)C(=O)O; Nle = CCCC[C@H](N)C(=O)O

How the values were obtained:
[1] = test system: DocSTm (phosphorylation of EF-TuSTm); experiment: Dot blot EF-Tu phosphorylation assay; assay type: biochemical, Salmonella Typhimurium; settings: DocSTm 1 μM, EF-TuSTm 3 μM, peptide 10 μM to 5 nM (3-fold dilutions), 16 h RT, dot blot anti-phosphothreonine; compared at three times the DocSTm concentration; two independent experiments
Method: Samples were prepared in assay buffer [50 mM HEPES (pH 7.5), 25 mM (NH4)2SO4, 2 mM TCEP, 2 mM MgCl2, and 1 mM ATP] with a final concentration of recombinant Doc at 1 μM, recombinant EF-Tu at 3 μM, and varying concentrations of synthetic Phd peptides (final concentrations: 10 μM to 5 nM). EF-Tu (3 μM) in assay buffer was used as a negative control (no Doc and Phd peptide), while EF-Tu (3 μM) with Doc (1 μM) in assay buffer was used as a positive control (no Doc inhibitor). The final sample volume was 10 μL. Samples were incubated for 16 h at RT and subsequently spotted on a nitrocellulose membrane. Phosphorylated EF-Tu was detected by immunodecoration using a rabbit monoclonal antiphosphothreonine antibody (Abcam, ab218195) at 1:2000 dilution (1 h at 4 °C), followed by incubation with a goat antirabbit IgG (H + L) HRP conjugate antibody (Advansta) at 1:10,000 dilution (1 h at RT). Chemiluminescence was developed using the HRP Luminata Kit (Merck, WBLUR0100) and captured with an ImageQuant LAS4000 Western blot imaging system (GE HealthCare). Each peptide was tested in two independent experiments.

[2] = test system: DocSTm toxin; settings: DocSTm 5 μM, peptide 50 μM; for Average Tm of DocSTm in the presence of peptide: pH 8.0, average ± SD, replicates 3-48 (Table S3)
In short: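 Thermal shift with 5 μM recombinant Doc toxin and 50 μM Phd peptides in 20 mM K2HPO4, 50 mM (NH4)2SO4, pH 8.0, SYPRO Orange 3×, ramped 25–95 °C. Tm from Boltzmann fit; ΔTm is peptide-bound minus free DocSTm Tm, triplicates.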

Compound | Inhibition of EF-TuSTm phosphorylation by DocSTm (concentration needed for full inhibition) [1] | Average Tm of DocSTm in the presence of peptide [2] | ΔTm (thermal shift) of DocSTm in the presence of peptide ([2]; SYPRO Orange 3×, 20 mM K2HPO4, 50 mM (NH4)2SO4, pH 8.0, average Tm with peptide minus average Tm of free DocSTm, mean ± SD)
CCCC[C@H](NC(=O)[C@H](Cc1c[nH]c2ccccc12)NC(C)=O)C(=O)N[C@@H](CCCNC(=N)N)C(=O)N[C@@H](CC(=O)O)C(=O)N[C@@H](CCC(=O)O)C(=O)N[C@@H](Cc1ccccc1)C(=O)N[C@@H](C)C(=O)N[C@@H](C)C(=O)N[C@H](C(=O)N[C@@H](CCCC)C(=O)N[C@@H](CCCNC(=N)N)C(=O)N[C@H](C(=O)N[C@@H](Cc1c[nH]cn1)C(=O)NCC(=O)N[C@@]1(C)CCCC=CCCC[C@@](C)(C(=O)N[C@@H](CC(C)C)C(=O)N[C@@H](C)C(=O)N[C@@H](CC(=O)O)C(=O)N[C@@H](CCCCN)C(=O)O)NC(=O)[C@H](CCCNC(=N)N)NC(=O)[C@H](CC(C)C)NC(=O)[C@H](CCC(=O)O)NC1=O)C(C)C)[C@@H](C)CC [Peptide 18] (Ac-W[Nle]RDEFAAI[Nle]RVHG[S5]ELR[S5]LADK-OH; staple 15-19) | required a higher concentration to achieve full inhibition | 66.3 ± 0.2 °C | –
CCCC[C@H](NC(=O)[C@H](Cc1c[nH]c2ccccc12)NC(C)=O)C(=O)N[C@@H](CCCNC(=N)N)C(=O)N[C@@H](CC(=O)O)C(=O)N[C@@H](CCC(=O)O)C(=O)N[C@@H](Cc1ccccc1)C(=O)N[C@@H](CCCNC(=N)N)C(=O)N[C@@H](C)C(=O)N[C@H](C(=O)N[C@@H](CCCC)C(=O)N[C@@H](CCCNC(=N)N)C(=O)N[C@H](C(=O)N[C@@H](Cc1c[nH]cn1)C(=O)NCC(=O)N[C@@H](CC(N)=O)C(=O)N[C@@H](CCC(=O)O)C(=O)N[C@@H](CC(C)C)C(=O)N[C@@H](CCCNC(=N)N)C(=O)N[C@@H](CCC(=O)O)C(=O)N[C@@H](CC(C)C)C(=O)N[C@@H](C)C(=O)N[C@@H](CC(=O)O)C(=O)N[C@@H](CCCCN)C(=O)O)C(C)C)[C@@H](C)CC [Peptide 19] (Ac-W[Nle]RDEFRAI[Nle]RVHGNELRELADK-OH) | fully inhibited | 62.5 ± 0.9 °C | –
CCCC[C@H](NC(=O)[C@H](Cc1c[nH]c2ccccc12)NC(C)=O)C(=O)N[C@@H](CCCNC(=N)N)C(=O)N[C@@]1(C)CCCC=CCCC[C@@](C)(C(=O)N[C@H](C(=O)N[C@@H](CCCC)C(=O)N[C@@H](CCCNC(=N)N)C(=O)N[C@H](C(=O)N[C@@H](Cc2c[nH]cn2)C(=O)NCC(=O)N[C@@H](CC(N)=O)C(=O)N[C@@H](CCC(=O)O)C(=O)N[C@@H](CC(C)C)C(=O)N[C@@H](CCCNC(=N)N)C(=O)N[C@@H](CCC(=O)O)C(=O)N[C@@H](CC(C)C)C(=O)N[C@@H](C)C(=O)N[C@@H](CC(=O)O)C(=O)N[C@@H](CCCCN)C(=O)O)C(C)C)[C@@H](C)CC)NC(=O)[C@H](CCCNC(=N)N)NC(=O)[C@H](Cc2ccccc2)NC(=O)[C@H](CCC(=O)O)NC1=O [Peptide 20] (Ac-W[Nle]R[S5]EFR[S5]I[Nle]RVHGNELRELADK-OH; staple 4-8) | required a higher concentration to achieve full inhibition | 60.4 ± 0.4 °C | –
CCCC[C@H](NC(=O)[C@H](Cc1c[nH]c2ccccc12)NC(C)=O)C(=O)N[C@@H](CCCNC(=N)N)C(=O)N[C@@H](CC(=O)O)C(=O)N[C@@H](CCC(=O)O)C(=O)N[C@@H](Cc1ccccc1)C(=O)N[C@@H](CCCNC(=N)N)C(=O)N[C@@H](C)C(=O)N[C@H](C(=O)N[C@@H](CCCC)C(=O)N[C@@H](CCCNC(=N)N)C(=O)N[C@H](C(=O)N[C@@H](Cc1c[nH]cn1)C(=O)NCC(=O)N[C@@]1(C)CCCC=CCCC[C@@](C)(C(=O)N[C@@H](CC(C)C)C(=O)N[C@@H](C)C(=O)N[C@@H](CC(=O)O)C(=O)N[C@@H](CCCCN)C(=O)O)NC(=O)[C@H](CCCNC(=N)N)NC(=O)[C@H](CC(C)C)NC(=O)[C@H](CCC(=O)O)NC1=O)C(C)C)[C@@H](C)CC [Peptide 21] (Ac-W[Nle]RDEFRAI[Nle]RVHG[S5]ELR[S5]LADK-OH; staple 15-19) | required a higher concentration to achieve full inhibition | 61.1 ± 2.5 °C | –
CCCC[C@H](NC(=O)[C@H](Cc1c[nH]c2ccccc12)NC(C)=O)C(=O)N[C@@H](CCCNC(=N)N)C(=O)N[C@@H](CC(N)=O)C(=O)N[C@@H](CCC(=O)O)C(=O)N[C@@H](Cc1ccccc1)C(=O)N[C@@H](CCCNC(=N)N)C(=O)N[C@@H](C)C(=O)N[C@H](C(=O)N[C@@H](CCCC)C(=O)N[C@@H](CCCNC(=N)N)C(=O)N[C@H](C(=O)N[C@@H](Cc1c[nH]cn1)C(=O)NCC(=O)N[C@@]1(C)CCCC=CCCC[C@@](C)(C(=O)N[C@@H](CC(C)C)C(=O)N[C@@H](C)C(=O)N[C@@H](CC(N)=O)C(=O)N[C@@H](CCCCN)C(=O)O)NC(=O)[C@H](CCCNC(=N)N)NC(=O)[C@H](CC(C)C)NC(=O)[C@H](CCC(N)=O)NC1=O)C(C)C)[C@@H](C)CC [Peptide 29] (Ac-W[Nle]RNEFRAI[Nle]RVHG[S5]QLR[S5]LANK-OH; staple 15-19) | required a higher concentration for full DocSTm inhibition | 61.6 ± 0.3 °C | –
CCCC[C@H](NC(=O)[C@H](Cc1c[nH]c2ccccc12)NC(C)=O)C(=O)N[C@@H](CC(=O)O)C(=O)N[C@@H](CC(N)=O)C(=O)N[C@@H](CCC(=O)O)C(=O)N[C@@H](Cc1ccccc1)C(=O)N[C@@H](C)C(=O)N[C@@H](C)C(=O)N[C@H](C(=O)N[C@@H](CCCC)C(=O)N[C@@H](C)C(=O)N[C@H](C(=O)N[C@@H](Cc1c[nH]cn1)C(=O)NCC(=O)N[C@@H](CCCNC(=N)N)C(=O)N[C@@H](CCC(N)=O)C(=O)N[C@@H](CC(C)C)C(=O)N[C@@H](CCCNC(=N)N)C(=O)N[C@@H](CCCNC(=N)N)C(=O)N[C@@H](CC(C)C)C(=O)N[C@@H](C)C(=O)N[C@@H](CC(N)=O)C(=O)N[C@@H](CCCCN)C(=O)O)C(C)C)[C@@H](C)CC [Peptide 30] (Ac-W[Nle]DNEFAAI[Nle]AVHGRQLRRLANK-OH) | higher than three times the DocSTm concentration | 56.7 ± 2.6 °C | ≈ 14 °C
CCCC[C@H](NC(=O)[C@H](Cc1c[nH]c2ccccc12)NC(C)=O)C(=O)N[C@@H](CC(N)=O)C(=O)N[C@@H](CC(N)=O)C(=O)N[C@@H](CCC(=O)O)C(=O)N[C@@H](Cc1ccccc1)C(=O)N[C@@H](C)C(=O)N[C@@H](C)C(=O)N[C@H](C(=O)N[C@@H](CCCC)C(=O)N[C@@H](C)C(=O)N[C@H](C(=O)N[C@@H](Cc1c[nH]cn1)C(=O)NCC(=O)N[C@@H](CCCNC(=N)N)C(=O)N[C@@H](CCC(N)=O)C(=O)N[C@@H](CC(C)C)C(=O)N[C@@H](CCCNC(=N)N)C(=O)N[C@@H](CCCNC(=N)N)C(=O)N[C@@H](CC(C)C)C(=O)N[C@@H](C)C(=O)N[C@@H](CC(N)=O)C(=O)N[C@@H](CCCCN)C(=O)O)C(C)C)[C@@H](C)CC [Peptide 31] (Ac-W[Nle]NNEFAAI[Nle]AVHGRQLRRLANK-OH) | higher than three times the DocSTm concentration | 61.6 ± 1.9 °C | –
CCCC[C@H](NC(=O)[C@H](Cc1c[nH]c2ccccc12)NC(C)=O)C(=O)N[C@@H](CC(=O)O)C(=O)N[C@@H](CC(N)=O)C(=O)N[C@@H](CCC(=O)O)C(=O)N[C@@H](Cc1ccccc1)C(=O)N[C@@H](C)C(=O)N[C@@H](C)C(=O)N[C@H](C(=O)N[C@@H](CCCC)C(=O)N[C@@H](C)C(=O)N[C@H](C(=O)N[C@@H](Cc1c[nH]cn1)C(=O)NCC(=O)N[C@@H](CCCNC(=N)N)C(=O)N[C@@H](CCC(N)=O)C(=O)N[C@@H](CC(C)C)C(=O)N[C@@H](CCCNC(=N)N)C(=O)N[C@@H](CCCNC(=N)N)C(=O)N[C@@H](CC(C)C)C(=O)N[C@@H](C)C(=O)N[C@@H](CCCNC(=N)N)C(=O)N[C@@H](CCCCN)C(=O)O)C(C)C)[C@@H](C)CC [Peptide 32] (Ac-W[Nle]DNEFAAI[Nle]AVHGRQLRRLARK-OH) | close to the activity of peptide 1 | 62.6 ± 1.2 °C | –
CCCC[C@H](NC(=O)[C@H](Cc1c[nH]c2ccccc12)NC(C)=O)C(=O)N[C@@H](CC(N)=O)C(=O)N[C@@H](CC(N)=O)C(=O)N[C@@H](CCC(=O)O)C(=O)N[C@@H](Cc1ccccc1)C(=O)N[C@@H](C)C(=O)N[C@@H](C)C(=O)N[C@H](C(=O)N[C@@H](CCCC)C(=O)N[C@@H](C)C(=O)N[C@H](C(=O)N[C@@H](Cc1c[nH]cn1)C(=O)NCC(=O)N[C@@H](CCCNC(=N)N)C(=O)N[C@@H](CCC(N)=O)C(=O)N[C@@H](CC(C)C)C(=O)N[C@@H](CCCNC(=N)N)C(=O)N[C@@H](CCCNC(=N)N)C(=O)N[C@@H](CC(C)C)C(=O)N[C@@H](C)C(=O)N[C@@H](CCCNC(=N)N)C(=O)N[C@@H](CCCCN)C(=O)O)C(C)C)[C@@H](C)CC [Peptide 33] (Ac-W[Nle]NNEFAAI[Nle]AVHGRQLRRLARK-OH) | higher than three times the DocSTm concentration | 63.0 ± 0.8 °C | –
